According to ChEMBL document CHEMBL1201862, “PubChem BioAssay data set” (2004):
Activity calls are given as the source filed them.

Assays:
Kallikrein-7 = Kallikrein-7 (Homo sapiens, UniProt P49862); assay: Fluorescence Intensity-based biochemical primary high throughput dose response assay to identify activators of kallikrein-7 (K7) zymogen.
[1] = HEK293 Cytotoxicity Assay Measured in Cell-Based System Using Plate Reader - 7071-01_Inhibitor_Dose_CherryPick_Activity_Set2.; assay type: functional
HEK293 = assay: HEK293T cell cytotoxicity, dose response, cytotoxicity control, ATP luminescence, cherry-pick samples (AID 687005); assay type: functional, cell-based; details: Homo sapiens;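 note: cells exposed to compound for 48 hours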
[2] = HEK293 cell cytotoxicity, dose response, cytotoxicity control, plate reader, cherry-picked samples (AID 743446); assay type: functional, cell-based
[3] = MC4R antagonists, dose response, counter-screen for LGR2 antagonist project, cell-based, plate reader, cherry pick (AID 743444); assay type: functional;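 note: transfected HEK 293 cells stimulated with alpha-MSH peptide; potency of inhibitors of the alpha-MSH evoked signal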
[4] = HepG2 cell cytotoxicity, dose response, cytotoxicity control, plate reader, cherry-pick, antagonist series (AID 743416); assay type: functional, cell-based
[5] = HepG2 cell cytotoxicity, dose response, cytotoxicity control, ATP luminescence, cherry-pick, activator set 2 (AID 1053143); assay type: functional, cell-based
[6] = LGR2 antagonists, dose response, cell-based, HEK293, CRE-luciferase reporter, cherry pick, set 2 (AID 743343); assay type: functional;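 note: transfected cells were stimulated with diluted bursicon conditioned medium after compound addition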
[7] = A549 cell cytotoxicity, dose response, cytotoxicity control, plate reader, cherry-pick, antagonist series (AID 743412); assay type: functional, cell-based
[8] = HEK293T cell cytotoxicity, dose response, cytotoxicity control, CellTiter-Glo luminescence, dry powder, set 20 (AID 1117293); assay type: functional, cell-based; details: HEK293
[9] = inhibitors of orthopox intermediate gene expression, dose response, cell-based, single fluorophore reporter, dry powder (AID 1117271); assay type: functional
[10] = Single fluorophore orthopox expression reporter, late gene expression Measured in Cell-Based and Microorganism Combination System Using Plate Reader - 2142-08_Inhibitor_Dose_DryPowder_Activity.; assay type: functional
[11] = A549 cell cytotoxicity, dose response, CellTiter-Glo luminescence, dry powder, set 17 (AID 1117284); assay type: functional, cell-based
[12] = Orthopox viral replication plaque formation Measured in Cell-Based and Microorganism Combination System Using Imaging - 2142-05_Inhibitor_Dose_DryPowder_Activity.; assay type: functional
[13] = inhibitors of non-replicating M. tuberculosis, dose response, luciferase, dry powder (AID 651620); assay type: functional; details: Mycobacterium tuberculosis
[14] = inhibitors of non-replicating M. tuberculosis, dose response, luciferase, dry powder (AID 651619); assay type: functional; details: Mycobacterium tuberculosis
[15] = cytotoxicity in HeLa cells, dose response, cytotoxicity control, cell-based, plate reader, dry powder (AID 651946); assay type: functional
[16] = cytotoxicity in HepG2 cells, dose response, cytotoxicity control, cell-based, plate reader, dry powder (AID 651947); assay type: functional
Beta-galactosidase = Beta-galactosidase (Escherichia coli, UniProt Q8VNN2); assay: Dose response counterscreen for EBI2 assay utilizing the enzyme, b-galactosidase.; assay type: functional
Sequence of Beta-galactosidase (Q8VNN2 whole entry): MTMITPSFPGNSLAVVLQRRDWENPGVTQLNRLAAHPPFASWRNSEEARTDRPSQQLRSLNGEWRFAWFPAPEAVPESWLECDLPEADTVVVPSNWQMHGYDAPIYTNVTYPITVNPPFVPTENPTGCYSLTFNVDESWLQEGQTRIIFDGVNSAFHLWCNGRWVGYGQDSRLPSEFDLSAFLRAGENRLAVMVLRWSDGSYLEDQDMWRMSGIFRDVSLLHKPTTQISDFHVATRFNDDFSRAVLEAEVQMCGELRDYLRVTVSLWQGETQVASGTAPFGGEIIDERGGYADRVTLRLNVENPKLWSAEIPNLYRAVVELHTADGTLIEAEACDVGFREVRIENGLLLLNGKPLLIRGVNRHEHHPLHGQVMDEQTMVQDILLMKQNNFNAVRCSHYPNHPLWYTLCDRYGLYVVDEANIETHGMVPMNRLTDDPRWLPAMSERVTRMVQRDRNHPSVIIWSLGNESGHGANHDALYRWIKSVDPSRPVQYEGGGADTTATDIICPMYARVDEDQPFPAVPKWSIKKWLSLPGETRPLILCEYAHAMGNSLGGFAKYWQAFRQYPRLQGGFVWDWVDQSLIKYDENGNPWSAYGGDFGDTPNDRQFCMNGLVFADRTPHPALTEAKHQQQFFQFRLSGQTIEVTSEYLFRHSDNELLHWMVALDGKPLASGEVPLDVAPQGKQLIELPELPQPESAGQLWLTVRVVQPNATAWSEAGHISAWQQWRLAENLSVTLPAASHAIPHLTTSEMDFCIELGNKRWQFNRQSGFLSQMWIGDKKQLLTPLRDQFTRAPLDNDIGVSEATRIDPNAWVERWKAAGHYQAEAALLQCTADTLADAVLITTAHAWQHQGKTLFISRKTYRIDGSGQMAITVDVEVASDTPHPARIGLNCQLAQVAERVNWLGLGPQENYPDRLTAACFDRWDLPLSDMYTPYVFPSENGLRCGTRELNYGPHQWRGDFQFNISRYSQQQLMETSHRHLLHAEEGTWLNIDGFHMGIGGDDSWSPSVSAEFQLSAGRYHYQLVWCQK

A549 = assay: A549 cell toxicity, dose response, cytotoxicity control, plate reader, cherry-pick samples (AID 687028); assay type: functional, cell-based; details: Homo sapiens
[17] = HepG2 cell cytotoxicity, dose response, cytotoxicity control for Shn3 inhibitor project, CellTiter-Glo, cherry-picked (AID 624134); assay type: functional, cell-based
[18] = reduction of Shn3 3'UTR firefly luciferase signal, dose response, Schnurri-3 inhibitor project, cell-based, Clone20 osteoblasts, cherry-pick, set 2 (AID 720490); assay type: functional;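 note: actives lower the luminescence signal as inhibitors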
[19] = control 3'UTR Renilla luciferase suppression, dose response, counter-screen for Shn3 inhibitor project, cell-based, Clone20-Shn3RL, cherry-picked (AID 624133); assay type: functional
[20] = Shn3 3'UTR reporter inhibitors, dose response, cell-based, Clone20 osteoblasts, firefly luciferase, cherry-picked (AID 624132); assay type: functional;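 note: firefly luciferase luminescence from reporter carrying the Shn3 3'UTR in osteoblasts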
[21] = inhibitors of control Renilla luciferase reporter, dose response, counter-screen for Shn3 3'UTR targeting project, Clone20-Shn3RL cells, dual-Glo, cherry-pick, set 2 (AID 720724); assay type: functional, cell-based; details: Dual-Go Shn3RL
[22] = TRPM1 promoter luciferase reporter signal decrease, dose response, MITF inhibitor project, cell-based, SK-MEL-5, dry powder, set 8 (AID 624430); assay type: functional
[23] = MITF: Counter assay: A375 proliferation Measured in Cell-Based System Using Plate Reader - 2084-03_Inhibitor_Dose_DryPowder_Activity_Set8.; assay type: functional; details: A-375
[24] = MITF Orthogonal Assay: SK-MEL-5 CTG Assay Measured in Cell-Based System Using Plate Reader - 2084-02_Inhibitor_Dose_DryPowder_Activity_Set7.; assay type: functional

Sequence of Kallikrein-7 (P49862 whole entry): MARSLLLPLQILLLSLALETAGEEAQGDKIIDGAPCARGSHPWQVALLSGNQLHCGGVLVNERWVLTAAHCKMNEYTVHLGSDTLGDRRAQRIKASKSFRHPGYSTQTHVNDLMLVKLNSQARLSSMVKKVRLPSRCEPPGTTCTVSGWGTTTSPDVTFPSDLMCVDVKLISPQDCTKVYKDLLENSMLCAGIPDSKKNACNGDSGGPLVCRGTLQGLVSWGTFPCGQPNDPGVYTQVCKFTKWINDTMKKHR

COC(=O)c1ccc(N2C(c3cc(OC)cc(OC)c3)=Cc3ccc(-c4ccc(C(N)=O)cc4)cc3C2CC(=O)C2CC2)cc1 (stereo not drawn)
EC50 (Kallikrein-7): > 7.72 µM (active)

O=C(c1cccc(Br)c1)N1CCN(c2ccccn2)CC1
AC50 [1]: > 52 µM (inactive) | AC50 (HEK293): > 52 µM (inactive)

O=C(Nc1nc2cc3c(cc2s1)OCCO3)c1cccs1
AC50 [2]: > 52 µM (inactive) | AC50 [3]: 3.84 µM (active) | AC50 [4]: > 52 µM (inactive) | AC50 [5]: 26 µM (active) | AC50 [6]: 2.01 µM (active) | AC50 [7]: 28 µM (active)

O=S(=O)(Nc1cc(C(F)(F)F)ccc1N1CCCCC1)c1ccc(-c2ccccc2)cc1
AC50 [8]: 0.852 µM (active)

Cc1ccc(-c2ccc(CN(C)C[C@@H]3Oc4cc(C#C[C@@H](C)O)ccc4S(=O)(=O)N([C@@H](C)CO)C[C@@H]3C)cc2)cc1
AC50 [9]: 1.95 µM (active) | AC50 [10]: 1.13 µM (active) | AC50 [11]: > 52 µM (inactive) | AC50 [12]: 1.76 µM (active)

c1ccc(Sc2nnc(-c3ccccc3)o2)cc1
IC90 [13]: 1 µM (active) | IC90 [14]: 1 µM (active) | AC50 [15]: > 52 µM (inactive) | AC50 [16]: 42.9 µM (active)

CCOC(=O)c1ccc(S(=O)(=O)N2CCN(C(=O)c3cc4ccccc4o3)CC2)cc1
IC50 (Beta-galactosidase): > 80 µM (inactive)

C[C@@H]1CCCCO[C@H](CN(C)C(=O)Nc2ccc(C(F)(F)F)cc2)[C@H](C)CN([C@@H](C)CO)C(=O)c2cc(NS(=O)(=O)c3ccc(F)cc3)ccc2O1
AC50 (A549): 28.1 µM (active)

CCOc1cc(CNCCc2ccc(S(N)(=O)=O)cc2)ccc1OCc1ccccc1
AC50 [17]: > 70 µM (inactive) | AC50 [18]: 3.56 µM (active) | AC50 [19]: 25.5 µM (active) | AC50 [20]: 2.44 µM (active) | AC50 [21]: 31.9 µM (active)

CN1CCN(C2=C(Nc3ccc(Cl)c(Cl)c3)C(=O)c3ccccc3C2=O)CC1
AC50 [22]: 6.64 µM (active) | AC50 [23]: 27.9 µM (active) | AC50 [24]: 7.66 µM (active)
